In ChEMBL document CHEMBL5465560, “Selectivity Literature for EUbOPEN Chemogenomic Library” (2024):
pKd: −log10 of the molar value.

Tests used:
[1] = target: Serine/threonine-protein kinase WNK4 (Homo sapiens) (UniProt Q96J92); experiment: Selectivity interaction (KinomeScan (DiscoverX)) EUB0001049a WNK4; settings: at 1 µM
[2] = target: T1, cGMP-dependent protein kinase 2 (Homo sapiens) (UniProt Q13237); experiment: Selectivity interaction (KinomeScan (DiscoverX)) EUB0001049a PRKG2; settings: at 1 µM
T1 sequence (whole entry): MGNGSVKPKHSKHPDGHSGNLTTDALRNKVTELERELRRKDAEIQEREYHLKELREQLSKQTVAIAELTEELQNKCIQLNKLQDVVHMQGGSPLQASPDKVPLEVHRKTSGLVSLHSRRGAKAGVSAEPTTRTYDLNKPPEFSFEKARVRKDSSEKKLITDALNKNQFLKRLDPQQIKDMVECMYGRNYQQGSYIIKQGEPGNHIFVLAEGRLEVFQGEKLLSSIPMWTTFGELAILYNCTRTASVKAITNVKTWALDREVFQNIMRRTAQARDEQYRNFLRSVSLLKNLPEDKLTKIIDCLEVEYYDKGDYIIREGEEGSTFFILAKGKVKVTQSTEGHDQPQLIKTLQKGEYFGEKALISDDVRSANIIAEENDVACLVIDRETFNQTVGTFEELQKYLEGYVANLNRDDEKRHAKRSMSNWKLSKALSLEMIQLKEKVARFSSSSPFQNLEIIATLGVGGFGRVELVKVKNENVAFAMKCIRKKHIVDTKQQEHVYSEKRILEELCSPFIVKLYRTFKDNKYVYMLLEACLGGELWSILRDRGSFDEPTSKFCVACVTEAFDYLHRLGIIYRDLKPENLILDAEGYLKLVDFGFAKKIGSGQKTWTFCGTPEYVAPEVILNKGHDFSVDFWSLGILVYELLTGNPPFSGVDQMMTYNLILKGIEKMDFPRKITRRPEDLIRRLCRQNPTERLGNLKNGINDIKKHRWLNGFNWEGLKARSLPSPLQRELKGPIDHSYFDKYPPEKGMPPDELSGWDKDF

[3] = target: Glycogen synthase kinase-3 beta (Homo sapiens, UniProt P49841); experiment: Selectivity interaction (Millipore kinase profiler) EUB0000124b GSK3B; settings: at 10 µM
[4] = target: Receptor-type tyrosine-protein kinase FLT3 (Homo sapiens) (UniProt P36888); experiment: Selectivity interaction (KinomeScan (DiscoverX)) EUB0000666a FLT3; settings: at 10 µM
Chain of Receptor-type tyrosine-protein kinase FLT3 (Homo sapiens) (P36888 whole entry): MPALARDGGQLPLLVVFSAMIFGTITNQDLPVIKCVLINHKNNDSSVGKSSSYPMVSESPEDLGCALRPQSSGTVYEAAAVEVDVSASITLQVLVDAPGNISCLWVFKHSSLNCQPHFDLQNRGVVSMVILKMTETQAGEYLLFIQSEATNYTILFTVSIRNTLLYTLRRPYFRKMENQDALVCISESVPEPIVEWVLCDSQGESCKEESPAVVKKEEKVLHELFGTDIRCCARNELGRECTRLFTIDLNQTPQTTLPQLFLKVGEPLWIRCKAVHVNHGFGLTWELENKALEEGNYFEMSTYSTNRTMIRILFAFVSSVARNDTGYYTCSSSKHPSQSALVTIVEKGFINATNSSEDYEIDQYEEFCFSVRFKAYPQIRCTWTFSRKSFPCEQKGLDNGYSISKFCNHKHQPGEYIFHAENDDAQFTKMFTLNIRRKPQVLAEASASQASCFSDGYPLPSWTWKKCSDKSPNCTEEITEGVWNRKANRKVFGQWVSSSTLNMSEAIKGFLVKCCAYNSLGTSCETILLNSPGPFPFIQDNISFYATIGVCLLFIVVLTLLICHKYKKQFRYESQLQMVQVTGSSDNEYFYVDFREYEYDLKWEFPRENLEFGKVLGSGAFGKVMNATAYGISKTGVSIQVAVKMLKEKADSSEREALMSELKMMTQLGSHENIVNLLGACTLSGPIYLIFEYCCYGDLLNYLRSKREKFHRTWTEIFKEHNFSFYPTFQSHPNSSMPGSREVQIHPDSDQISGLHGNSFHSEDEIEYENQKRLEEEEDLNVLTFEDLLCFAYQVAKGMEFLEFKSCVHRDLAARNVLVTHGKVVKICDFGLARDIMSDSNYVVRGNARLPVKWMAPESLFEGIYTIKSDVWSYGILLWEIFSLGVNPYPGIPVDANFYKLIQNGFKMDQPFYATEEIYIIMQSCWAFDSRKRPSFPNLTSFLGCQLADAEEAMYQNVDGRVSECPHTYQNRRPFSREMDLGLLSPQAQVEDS

[5] = target: Cyclin-G-associated kinase (Homo sapiens, UniProt O14976); experiment: Selectivity interaction (Competition-binding assay (DiscoverX)) EUB0000229b GAK
Chain of Cyclin-G-associated kinase (O14976 whole entry): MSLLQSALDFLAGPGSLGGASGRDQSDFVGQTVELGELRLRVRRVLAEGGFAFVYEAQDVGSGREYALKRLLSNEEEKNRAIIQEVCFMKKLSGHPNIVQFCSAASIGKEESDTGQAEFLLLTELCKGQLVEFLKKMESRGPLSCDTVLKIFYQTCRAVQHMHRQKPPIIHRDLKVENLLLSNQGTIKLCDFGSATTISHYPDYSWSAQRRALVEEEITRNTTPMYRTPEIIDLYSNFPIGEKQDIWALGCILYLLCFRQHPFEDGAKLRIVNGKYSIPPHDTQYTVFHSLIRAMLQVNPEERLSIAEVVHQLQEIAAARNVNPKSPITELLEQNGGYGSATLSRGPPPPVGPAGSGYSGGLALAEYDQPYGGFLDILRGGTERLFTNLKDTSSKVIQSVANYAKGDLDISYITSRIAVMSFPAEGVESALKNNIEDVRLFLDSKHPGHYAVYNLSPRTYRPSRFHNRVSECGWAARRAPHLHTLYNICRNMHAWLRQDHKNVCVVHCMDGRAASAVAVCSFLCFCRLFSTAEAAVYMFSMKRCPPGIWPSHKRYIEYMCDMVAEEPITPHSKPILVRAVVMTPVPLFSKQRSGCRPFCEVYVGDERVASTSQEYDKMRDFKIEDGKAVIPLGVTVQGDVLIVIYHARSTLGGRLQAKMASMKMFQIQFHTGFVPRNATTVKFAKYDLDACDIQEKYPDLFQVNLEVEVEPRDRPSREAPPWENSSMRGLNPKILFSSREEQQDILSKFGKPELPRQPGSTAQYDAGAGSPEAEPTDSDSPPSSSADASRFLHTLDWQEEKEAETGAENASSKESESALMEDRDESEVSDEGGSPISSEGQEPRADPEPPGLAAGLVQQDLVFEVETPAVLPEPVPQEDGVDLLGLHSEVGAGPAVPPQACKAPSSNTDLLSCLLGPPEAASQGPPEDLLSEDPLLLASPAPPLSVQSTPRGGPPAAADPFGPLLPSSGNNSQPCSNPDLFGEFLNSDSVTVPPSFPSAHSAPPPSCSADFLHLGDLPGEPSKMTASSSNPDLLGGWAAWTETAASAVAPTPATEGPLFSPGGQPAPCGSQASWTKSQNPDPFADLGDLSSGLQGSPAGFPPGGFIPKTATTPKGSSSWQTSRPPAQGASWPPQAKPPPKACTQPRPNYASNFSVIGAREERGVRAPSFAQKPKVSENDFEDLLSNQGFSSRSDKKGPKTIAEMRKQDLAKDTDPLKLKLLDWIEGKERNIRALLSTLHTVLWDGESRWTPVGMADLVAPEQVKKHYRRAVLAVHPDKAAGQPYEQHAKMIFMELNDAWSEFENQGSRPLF

[6] = target: Serine/threonine-protein kinase MRCK beta (Homo sapiens) (UniProt Q9Y5S2); experiment: Selectivity interaction (KinomeScan (DiscoverX)) EUB0001079a CDC42BPB; settings: at 1 µM
[7] = target: T2, Aurora kinase A (Homo sapiens) (UniProt O14965); experiment: Selectivity interaction (Kinase panel (KiNativ target engagement assay in Jurkat cells)) EUB0001635a STK6; type: cell-based; settings: at 1 µM
T2 sequence (whole entry): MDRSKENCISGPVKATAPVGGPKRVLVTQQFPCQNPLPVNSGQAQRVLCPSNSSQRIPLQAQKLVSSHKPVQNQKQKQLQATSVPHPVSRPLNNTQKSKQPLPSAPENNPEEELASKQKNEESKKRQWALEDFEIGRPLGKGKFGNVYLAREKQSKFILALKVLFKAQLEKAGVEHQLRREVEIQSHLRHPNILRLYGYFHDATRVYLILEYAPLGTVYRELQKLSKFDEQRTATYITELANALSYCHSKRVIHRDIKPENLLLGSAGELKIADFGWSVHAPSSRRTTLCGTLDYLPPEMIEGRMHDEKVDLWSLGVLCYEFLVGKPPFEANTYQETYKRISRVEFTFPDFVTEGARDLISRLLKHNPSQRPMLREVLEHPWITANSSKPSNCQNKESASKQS

[8] = target: Hepatocyte growth factor-like protein (Homo sapiens) (UniProt P26927)
[9] = target: Casein kinase II subunit alpha' (Homo sapiens) (UniProt P19784); experiment: Selectivity interaction (KinomeScan (DiscoverX)) EUB0000045b CSNK2A2
Chain of Casein kinase II subunit alpha' (Homo sapiens) (P19784 whole entry, looked up): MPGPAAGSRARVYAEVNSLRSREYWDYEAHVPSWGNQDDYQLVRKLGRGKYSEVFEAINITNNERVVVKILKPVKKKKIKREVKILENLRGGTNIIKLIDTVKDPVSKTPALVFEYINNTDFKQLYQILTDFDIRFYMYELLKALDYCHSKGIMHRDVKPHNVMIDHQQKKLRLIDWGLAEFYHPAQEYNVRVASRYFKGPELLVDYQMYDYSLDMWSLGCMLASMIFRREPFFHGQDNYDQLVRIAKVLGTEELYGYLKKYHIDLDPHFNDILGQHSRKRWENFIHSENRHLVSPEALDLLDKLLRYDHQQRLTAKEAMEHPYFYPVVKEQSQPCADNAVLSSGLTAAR

[10] = target: cAMP-dependent protein kinase catalytic subunit beta (Homo sapiens) (UniProt P22694); experiment: Selectivity interaction (KinomeScan (DiscoverX)) EUB0000618a PRKACB; settings: at 10 µM
[11] = target: Cyclin-dependent kinase 1 (Homo sapiens) (UniProt P06493); experiment: Selectivity interaction (ActivX KiNativ screen (ex vivo kinase selectivity in human PBMCs)) EUB0001619a CDK1; type: cell-based; settings: PBMC, at 1 µM
Chain of Cyclin-dependent kinase 1 (Homo sapiens) (P06493 whole entry, looked up): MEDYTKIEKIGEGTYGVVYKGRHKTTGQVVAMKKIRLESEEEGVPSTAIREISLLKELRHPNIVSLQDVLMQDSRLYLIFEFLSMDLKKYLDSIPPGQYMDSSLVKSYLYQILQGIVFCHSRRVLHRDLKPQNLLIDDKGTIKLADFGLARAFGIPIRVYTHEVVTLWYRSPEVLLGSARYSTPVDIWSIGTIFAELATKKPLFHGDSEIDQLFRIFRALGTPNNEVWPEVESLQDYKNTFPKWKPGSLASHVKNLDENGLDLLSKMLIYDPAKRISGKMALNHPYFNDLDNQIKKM

Ephrin type-A receptor 4 = Ephrin type-A receptor 4 (Homo sapiens, UniProt P54764); experiment: Selectivity interaction (Upstate Kinase Profiler service (Millipore)) EUB0000056c EPHA4; settings: at 1 µM
[12] = target: T3, Dual specificity mitogen-activated protein kinase kinase 4 (Homo sapiens) (UniProt P45985); experiment: Selectivity interaction (KinomeScan (DiscoverX)) EUB0000695a MAP2K4; settings: at 100 nM
T3 sequence (whole entry): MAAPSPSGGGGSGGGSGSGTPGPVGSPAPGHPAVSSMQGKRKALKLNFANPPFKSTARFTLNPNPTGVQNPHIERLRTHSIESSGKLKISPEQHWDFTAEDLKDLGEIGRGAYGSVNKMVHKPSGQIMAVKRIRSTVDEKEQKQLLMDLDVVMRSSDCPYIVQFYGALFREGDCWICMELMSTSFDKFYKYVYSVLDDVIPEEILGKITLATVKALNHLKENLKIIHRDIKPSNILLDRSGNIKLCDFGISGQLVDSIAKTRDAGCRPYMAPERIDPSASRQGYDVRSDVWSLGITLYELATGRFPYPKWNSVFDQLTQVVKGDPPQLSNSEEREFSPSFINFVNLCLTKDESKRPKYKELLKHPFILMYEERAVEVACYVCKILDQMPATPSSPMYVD

[13] = target: Tyrosine-protein kinase Lyn (Homo sapiens, UniProt P07948); experiment: Selectivity interaction (KinomeScan (DiscoverX)) EUB0000607a LYN; settings: at 10 µM
Chain of Tyrosine-protein kinase Lyn (P07948 2-512 limits assumed): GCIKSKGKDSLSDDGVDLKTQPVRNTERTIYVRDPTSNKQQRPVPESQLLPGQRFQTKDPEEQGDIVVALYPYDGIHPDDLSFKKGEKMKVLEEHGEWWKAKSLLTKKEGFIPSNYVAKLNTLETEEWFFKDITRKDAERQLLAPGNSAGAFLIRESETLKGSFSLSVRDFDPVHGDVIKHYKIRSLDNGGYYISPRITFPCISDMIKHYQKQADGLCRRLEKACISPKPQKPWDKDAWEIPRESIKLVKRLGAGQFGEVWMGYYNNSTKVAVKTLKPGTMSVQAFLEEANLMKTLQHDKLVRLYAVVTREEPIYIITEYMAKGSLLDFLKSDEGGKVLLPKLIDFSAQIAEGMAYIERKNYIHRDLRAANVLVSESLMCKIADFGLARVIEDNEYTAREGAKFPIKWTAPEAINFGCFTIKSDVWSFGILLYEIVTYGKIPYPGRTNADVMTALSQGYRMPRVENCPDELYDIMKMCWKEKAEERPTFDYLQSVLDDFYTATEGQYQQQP

Chain of Serine/threonine-protein kinase WNK4 (Homo sapiens) (Q96J92 whole entry): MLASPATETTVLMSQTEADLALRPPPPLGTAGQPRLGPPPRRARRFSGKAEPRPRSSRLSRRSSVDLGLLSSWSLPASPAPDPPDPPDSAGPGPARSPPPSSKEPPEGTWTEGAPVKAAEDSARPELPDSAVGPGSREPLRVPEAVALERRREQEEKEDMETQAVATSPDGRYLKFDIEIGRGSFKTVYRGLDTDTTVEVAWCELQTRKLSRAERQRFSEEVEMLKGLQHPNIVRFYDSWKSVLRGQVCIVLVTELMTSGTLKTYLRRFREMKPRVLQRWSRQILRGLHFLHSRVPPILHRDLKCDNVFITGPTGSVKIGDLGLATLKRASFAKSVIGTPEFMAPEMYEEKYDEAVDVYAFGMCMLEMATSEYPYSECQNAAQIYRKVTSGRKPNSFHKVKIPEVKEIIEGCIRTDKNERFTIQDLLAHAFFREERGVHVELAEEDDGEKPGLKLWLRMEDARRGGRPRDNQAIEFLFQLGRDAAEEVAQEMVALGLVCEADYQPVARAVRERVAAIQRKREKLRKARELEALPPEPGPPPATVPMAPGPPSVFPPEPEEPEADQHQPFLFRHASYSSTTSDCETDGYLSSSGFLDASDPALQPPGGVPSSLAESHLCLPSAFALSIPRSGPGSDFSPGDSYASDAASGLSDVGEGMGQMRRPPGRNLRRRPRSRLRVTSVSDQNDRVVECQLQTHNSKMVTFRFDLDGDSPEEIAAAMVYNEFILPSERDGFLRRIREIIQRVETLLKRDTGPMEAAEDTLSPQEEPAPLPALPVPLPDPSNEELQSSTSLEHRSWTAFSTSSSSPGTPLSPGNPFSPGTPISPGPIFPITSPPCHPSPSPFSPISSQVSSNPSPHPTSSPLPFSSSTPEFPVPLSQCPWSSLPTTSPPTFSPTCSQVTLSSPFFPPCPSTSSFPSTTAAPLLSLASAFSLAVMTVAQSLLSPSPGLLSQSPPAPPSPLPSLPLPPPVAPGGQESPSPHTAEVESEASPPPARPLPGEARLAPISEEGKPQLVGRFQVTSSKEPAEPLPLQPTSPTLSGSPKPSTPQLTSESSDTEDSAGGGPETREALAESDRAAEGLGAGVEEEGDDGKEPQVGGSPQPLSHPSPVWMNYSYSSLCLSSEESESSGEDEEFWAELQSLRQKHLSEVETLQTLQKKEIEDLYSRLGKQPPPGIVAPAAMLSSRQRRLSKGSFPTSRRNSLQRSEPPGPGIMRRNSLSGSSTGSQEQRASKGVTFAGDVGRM

Question: For `COc1cc(Nc2nc(C)cc(-c3cnn4nc(OC)ccc34)n2)cc(C(F)(F)F)c1`, which % of control [1] is on record?
Answer: The % of control was 100%.

Question: And the % of control [2]?
Answer: Its % of control is 70%.

Question: Which % of control [3] does the source give for `CC(=O)Nc1cccc(-n2c(=O)n(C3CC3)c(=O)c3c(Nc4ccc(I)cc4F)n(C)c(=O)c(C)c32)c1` here?
Answer: The % of control was 98%.

Question: `O=C(NOC[C@H](O)CO)c1ccc(F)c(F)c1Nc1ccc(I)cc1F` was tested. Which % of control [4] did it give?
Answer: The % of control was 80%.

Question: `COc1cc(N(C)c2ccnc3ccc(C(F)(F)F)cc23)cc(OC)c1OC` was tested. Which pKd [5] did it give?
Answer: Its pKd is 5.15.

Question: Which % of control [6] does the source give for `Nc1cnc(N2CCc3cc(S(=O)(=O)Nc4c(F)cc(Cl)cc4F)cc(N4CCCC4=O)c32)nc1` [TP-020n] here?
Answer: The % of control was 95%.

Question: How did the % of engagement [7] turn out when `C=CC(=O)Nc1ccc(C(=O)Nc2[nH]nc3c2CN(C(=O)N[C@H](CN(C)C)c2ccccc2)C3(C)C)cc1` was run?
Answer: Its % of engagement is 14.1%.

Question: Which % of inhibition [8] does the source give for `Cc1cnc(Nc2ccc(F)cc2Cl)nc1-c1c[nH]c(C(=O)N[C@H](CO)c2cccc(Cl)c2)c1` here?
Answer: The % of inhibition was 4%.

Question: For `C=CC(=O)Nc1cc(-n2c(=O)ccc3cnc4ccc(-c5ccc(NS(C)(=O)=O)cc5)cc4c32)ccc1C`, which % of control ([9]; at 1 µM) is on record?
Answer: Its % of control is 100%.

Question: What about the % of control ([9]; at 10 µM) of the same molecule?
Answer: The % of control was 67%.

Question: Which % of control [10] does the source give for `O[C@H]1CC[C@H](Nc2ncc3nc(Nc4c(F)cc(F)cc4F)n([C@H]4CCOC4)c3n2)CC1` here?
Answer: Its % of control is 100%.

Question: Which % of inhibition [11] does the source give for `N#Cc1cccc(-c2c[nH]c3ncnc(N4CCOCC4)c23)c1` here?
Answer: The % of inhibition was 13%.

Question: With `Cc1ccc(-c2ccc3c(ccc4sc5c(c43)NC[C@@H](C)NC5=O)n2)cn1` as the molecule, how does the % of inhibition (Ephrin type-A receptor 4) read?
Answer: The % of inhibition was 7%.

Question: Which % of control [12] does the source give for `Cc1cc(F)c(C(=O)Nc2cccc(-c3nncn3C(C)C)n2)cc1-n1cnc(C2CC2)c1` here?
Answer: The % of control was 100%.

Question: How did the % of control [13] turn out when `CNC(=O)Nc1ccc(-c2nc(N3CC4CCC(C3)O4)c3cnn(C4CCC5(CC4)OCCO5)c3n2)cc1` was run?
Answer: The % of control was 85%.
